In US20230014151A1, “COMBINATION ANTIVIRAL THERAPY FOR MEASLES” (The Trustees of Columbia University in the City of New York, priority 2019, published 2023):
Entries after “also recorded” stand apart in the source; their conditions may differ. Where two headings read alike, the source gives them in different places. Square brackets hold non-standard residues; d marks the D form. Peptide text beside a SMILES is read from it. * marks the point of attachment. Cbz = O=C(OCc1ccccc1)*

How the values were obtained:
BG505 (HIV-1 strain) = conditions: read-out: IC50 BG505; pseudovirus, TZM-BL cells
[1] = test system: vesicular stomatitis virus (VSV); conditions: 16 h
16055 (HIV-1 strain) = conditions: read-out: IC50 16055; pseudovirus, TZM-BL cells
[2] = test system: murine leukemia viruses (MLV); conditions: read-out: IC50 MLV; pseudovirus, TZM-BL cells
[3] = biological target: viral glycoproteins (H and F); Nectin-4 (Measles virus, UniProt Q786F3); assay: beta-galactosidase complementation-based fusion assay, Nectin-4 target cells
MN (HIV-1 strain) = conditions: read-out: IC50 MN; pseudovirus, TZM-BL cells
B41 (HIV-1 strain) = conditions: read-out: IC50 B41; pseudovirus, TZM-BL cells
[4] = biological target: viral glycoproteins (H and F); CD150; assay: beta-galactosidase complementation-based fusion assay, CD150 target cells; conditions: for IC90: read-out: CD150 IC90
soluble MeV F [5] = biological target: T1, soluble MeV F (Measles virus, UniProt Q786F3); format: biochemical; conditions: peptide in culture medium, supernatant 24 hours post transfection
T1 construct: produced in a soluble form, with the ablation of the intracytoplasmic and transmembrane domains; Tobacco Etch Virus protease site (C); foldomer (trimerization) domain (C); 6xHis (C); made in house; host or cells: 293T (culture supernatant)

soluble MeV F [6] = format: biochemical, measles virus
virus bearing L454W F = assay: lethal infection of suckling mice, intranasal peptide; conditions: intranasal administration
MeV IC323-EGFP-F L454W = assay: organotypic brain cultures (OBC) infected with MeV bearing L454W F; format: cell-based, mice
wt MeV = conditions: in vitro, ex vivo; cited from earlier work
MeV “WTFb” strain = assay: in vivo efficacy, intranasal peptides in MeV-infected cotton rats; conditions: intranasal 24 h and 12 h before infection, 5 m/kg dose, 4 days post-infection
Description: FIGS. 84-93 further describe the invention. […] Intranasal administration of MeV-derived peptides protects cotton rats from MV infection. Cotton rats (n=4) were infected intranasally with MeV “WTFb” strain. Treatment was given intranasally 24 h and 12 h before infection in 100 ul (5 m/kg dose of peptides). The animals were euthanized 4 days post-infection.

Chain of viral glycoproteins (H and F); Nectin-4 (Q786F3 24-112): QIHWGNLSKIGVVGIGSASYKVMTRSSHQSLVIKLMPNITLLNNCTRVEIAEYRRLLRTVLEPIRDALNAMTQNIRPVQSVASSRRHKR
Chain of viral glycoproteins (H and F); CD150 (Q786F3 24-112): as above
Chain of viral glycoproteins (H and F); CD150 (Q786F3 113-550): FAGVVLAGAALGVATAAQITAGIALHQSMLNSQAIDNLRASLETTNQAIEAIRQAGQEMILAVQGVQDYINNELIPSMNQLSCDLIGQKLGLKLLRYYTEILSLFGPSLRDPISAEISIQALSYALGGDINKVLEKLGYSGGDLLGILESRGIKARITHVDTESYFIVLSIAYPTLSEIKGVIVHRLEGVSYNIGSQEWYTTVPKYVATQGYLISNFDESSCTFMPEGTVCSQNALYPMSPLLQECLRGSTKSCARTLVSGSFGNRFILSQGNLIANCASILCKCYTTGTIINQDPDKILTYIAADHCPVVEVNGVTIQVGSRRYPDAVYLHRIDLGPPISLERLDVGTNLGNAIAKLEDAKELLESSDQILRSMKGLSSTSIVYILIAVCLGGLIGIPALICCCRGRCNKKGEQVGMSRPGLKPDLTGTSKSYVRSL
T1 sequence (Q786F3 113-494, added parts left off): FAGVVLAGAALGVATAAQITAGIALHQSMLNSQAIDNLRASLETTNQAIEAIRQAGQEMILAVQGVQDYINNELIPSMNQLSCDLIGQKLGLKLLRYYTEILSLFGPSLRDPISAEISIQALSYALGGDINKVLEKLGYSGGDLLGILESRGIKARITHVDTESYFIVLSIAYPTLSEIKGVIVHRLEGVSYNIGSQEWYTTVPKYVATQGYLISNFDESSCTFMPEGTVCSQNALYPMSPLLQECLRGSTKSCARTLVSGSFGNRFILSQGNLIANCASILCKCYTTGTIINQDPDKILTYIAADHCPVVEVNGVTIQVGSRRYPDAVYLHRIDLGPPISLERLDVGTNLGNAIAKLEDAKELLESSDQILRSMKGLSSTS
T1 sequence (Q786F3 24-112): as the sequence (Q786F3 24-112) above

## O=C(CNC(=O)[C@H](Cc1ccccc1)NC(=O)[C@@H](Cc1ccccc1)NC(=O)OCc1ccccc1)NCC(=O)N[C@@H](CO)C(=O)NCC(=O)N[C@@H](CO)C(=O)NCC(=O)N[C@@H](CS)C(=O)O [FIP, Z-D-FFG-GSGSG-C (SEQ ID NO. 52)] (Cbz-[dF]FGGSGSGC-OH)
BG505 (HIV-1 strain)
  IC50: > 5000 nM
[1]
  IC50: > 5000 nM
16055 (HIV-1 strain)
  IC50: > 5000 nM
[2]
  IC50: > 5000 nM
[3]
  IC90: > 10000 nM
[3]; IC50, Table 2 (salient peptides), Nectin-4 target cells
  IC50: 9720 ± 2730 nM
[3]; Nectin4 IC50, Table 3 (extended version)
  IC50: 9720 ± 2730 nM
[3]; read-out: Nectin4 IC90
  IC90: > 10000 nM
MN (HIV-1 strain)
  IC50: > 5000 nM
B41 (HIV-1 strain)
  IC50: > 5000 nM

## CC[C@H](C)[C@H](NC(=O)[C@H](C)NC(=O)[C@H](CC(N)=O)NC(=O)CNC(=O)[C@H](CC(C)C)NC(=O)[C@H](CC(N)=O)NC(=O)[C@@H](NC(=O)CNC(=O)[C@@H](NC(=O)[C@H](CC(=O)O)NC(=O)[C@H](CC(C)C)NC(=O)[C@H](CCCNC(=N)N)NC(=O)[C@H](CCC(=O)O)NC(=O)[C@H](CC(C)C)NC(=O)[C@H](CO)NC(=O)[C@@H](NC(=O)[C@@H]1CCCN1C(=O)[C@@H]1CCCN1C(=O)CNC(=O)[C@H](CO)NC(=O)CNC(=O)[C@H](CO)NC(=O)CNC(=O)CNC(=O)[C@H](Cc1ccccc1)NC(=O)[C@@H](Cc1ccccc1)NC(=O)OCc1ccccc1)[C@@H](C)CC)C(C)C)[C@@H](C)O)C(=O)N[C@@H](C)C(=O)N[C@@H](CCCCN)C(=O)N[C@@H](CC(C)C)C(=O)N[C@@H](CCC(=O)O)C(=O)N[C@@H](CC(=O)O)C(=O)N[C@@H](C)C(=O)N[C@@H](CCCCN)C(=O)N[C@@H](CCC(=O)O)C(=O)N[C@@H](CC(C)C)C(=O)N[C@@H](CC(C)C)C(=O)N[C@@H](CCC(=O)O)C(=O)N[C@@H](CO)C(=O)N[C@@H](CO)C(=O)N[C@@H](CC(=O)O)C(=O)N[C@@H](CCC(N)=O)C(=O)N[C@H](C(=O)N[C@@H](CC(C)C)C(=O)N[C@@H](CCCNC(=N)N)C(=O)NCC(=O)N[C@@H](CO)C(=O)NCC(=O)N[C@@H](CO)C(=O)NCC(=O)N[C@@H](CSC1CC(=O)N(CCC(=O)NCCOCCOCCOCCOCCOCCOCCOCCOCCOCCOCCOCCNC(=O)CCN2C(=O)CC(SC[C@H](NC(=O)CNC(=O)[C@H](CO)NC(=O)CNC(=O)[C@H](CO)NC(=O)CNC(=O)[C@H](CCCNC(=N)N)NC(=O)[C@H](CC(C)C)NC(=O)[C@@H](NC(=O)[C@H](CCC(N)=O)NC(=O)[C@H](CC(=O)O)NC(=O)[C@H](CO)NC(=O)[C@H](CO)NC(=O)[C@H](CCC(=O)O)NC(=O)[C@H](CC(C)C)NC(=O)[C@H](CC(C)C)NC(=O)[C@H](CCC(=O)O)NC(=O)[C@H](CCCCN)NC(=O)[C@H](C)NC(=O)[C@H](CC(=O)O)NC(=O)[C@H](CCC(=O)O)NC(=O)[C@H](CC(C)C)NC(=O)[C@H](CCCCN)NC(=O)[C@H](C)NC(=O)[C@@H](NC(=O)[C@H](C)NC(=O)[C@H](CC(N)=O)NC(=O)CNC(=O)[C@H](CC(C)C)NC(=O)[C@H](CC(N)=O)NC(=O)[C@@H](NC(=O)CNC(=O)[C@@H](NC(=O)[C@H](CC(=O)O)NC(=O)[C@H](CC(C)C)NC(=O)[C@H](CCCNC(=N)N)NC(=O)[C@H](CCC(=O)O)NC(=O)[C@H](CC(C)C)NC(=O)[C@H](CO)NC(=O)[C@@H](NC(=O)[C@@H]3CCCN3C(=O)[C@@H]3CCCN3C(=O)CNC(=O)[C@H](CO)NC(=O)CNC(=O)[C@H](CO)NC(=O)CNC(=O)CNC(=O)[C@H](Cc3ccccc3)NC(=O)[C@@H](Cc3ccccc3)NC(=O)OCc3ccccc3)[C@@H](C)CC)C(C)C)[C@@H](C)O)[C@@H](C)CC)[C@@H](C)CC)C(=O)O)C2=O)C1=O)C(=O)O)[C@@H](C)CC (stereo partly shown) [[FIP-HRC450-485]2-peg11]
[3]
  IC50: 528 ± 635 nM
  IC90: 1180 ± 979 nM
[3]; read-out: Nectin4 IC90
  IC90: 1180 ± 979 nM
[4]
  IC50: 278 ± 229 nM
  IC90: 916 ± 162 nM
Soluble MeV F [5]
  stabilization of wt soluble F in pre-fusion state: stabilize the wt soluble F
Soluble MeV F [5]; listed as FIP-HRC-PEG11-dimer
  stabilization of wt soluble F in pre-fusion state: wt F protein remains in its pre-fusion state
Soluble MeV F [6]; 55° C., 1 mM peptide, compared with FIP commercial, FIP dimer, 3 g
  stabilization of soluble F by FIP-HRC (dimer without cholesterol), FIGS. 117A-E: remains in its pre-fusion state incubation at 55 °C for up to two hours; also recorded: wt F is partially stabilized; also recorded: superior to commercially available stabilizer like the commercial FIP and 3 g
Soluble MeV F [6]; wt, E455G, E170G E455G soluble F, 45° C. or 55° C. for 30', 1 uM peptide
  stabilization of soluble F proteins on heating: stabilize all the soluble F protein at both 45 °C and 55 °C

## CC[C@H](C)[C@H](NC(=O)[C@H](C)NC(=O)[C@H](CC(N)=O)NC(=O)CNC(=O)[C@H](CC(C)C)NC(=O)[C@H](CC(N)=O)NC(=O)[C@@H](NC(=O)CNC(=O)[C@@H](NC(=O)[C@H](CC(=O)O)NC(=O)[C@H](CC(C)C)NC(=O)[C@H](CCCNC(=N)N)NC(=O)[C@H](CCC(=O)O)NC(=O)[C@H](CC(C)C)NC(=O)[C@H](CO)NC(=O)[C@@H](NC(=O)[C@@H]1CCCN1C(=O)[C@@H]1CCCN1C(C)=O)[C@@H](C)CC)C(C)C)[C@@H](C)O)C(=O)N[C@@H](C)C(=O)N[C@@H](CCCCN)C(=O)N[C@@H](CC(C)C)C(=O)N[C@@H](CCC(=O)O)C(=O)N[C@@H](CC(=O)O)C(=O)N[C@@H](C)C(=O)N[C@@H](CCCCN)C(=O)N[C@@H](CCC(=O)O)C(=O)N[C@@H](CC(C)C)C(=O)N[C@@H](CC(C)C)C(=O)N[C@@H](CCC(=O)O)C(=O)N[C@@H](CO)C(=O)N[C@@H](CO)C(=O)N[C@@H](CC(=O)O)C(=O)N[C@@H](CCC(N)=O)C(=O)N[C@H](C(=O)N[C@@H](CC(C)C)C(=O)N[C@@H](CCCNC(=N)N)C(=O)NCC(=O)N[C@@H](CO)C(=O)NCC(=O)N[C@@H](CO)C(=O)NCC(=O)N[C@@H](CSC1CC(=O)N(CCCC(=O)NCCOCCOCCOCCOCCC(=O)NCCN(CCNC(=O)CCOCCOCCOCCOCCNC(=O)CCCN2C(=O)CC(SC[C@H](NC(=O)CNC(=O)[C@H](CO)NC(=O)CNC(=O)[C@H](CO)NC(=O)CNC(=O)[C@H](CCCNC(=N)N)NC(=O)[C@H](CC(C)C)NC(=O)[C@@H](NC(=O)[C@H](CCC(N)=O)NC(=O)[C@H](CC(=O)O)NC(=O)[C@H](CO)NC(=O)[C@H](CO)NC(=O)[C@H](CCC(=O)O)NC(=O)[C@H](CC(C)C)NC(=O)[C@H](CC(C)C)NC(=O)[C@H](CCC(=O)O)NC(=O)[C@H](CCCCN)NC(=O)[C@H](C)NC(=O)[C@H](CC(=O)O)NC(=O)[C@H](CCC(=O)O)NC(=O)[C@H](CC(C)C)NC(=O)[C@H](CCCCN)NC(=O)[C@H](C)NC(=O)[C@@H](NC(=O)[C@H](C)NC(=O)[C@H](CC(N)=O)NC(=O)CNC(=O)[C@H](CC(C)C)NC(=O)[C@H](CC(N)=O)NC(=O)[C@@H](NC(=O)CNC(=O)[C@@H](NC(=O)[C@H](CC(=O)O)NC(=O)[C@H](CC(C)C)NC(=O)[C@H](CCCNC(=N)N)NC(=O)[C@H](CCC(=O)O)NC(=O)[C@H](CC(C)C)NC(=O)[C@H](CO)NC(=O)[C@@H](NC(=O)[C@@H]3CCCN3C(=O)[C@@H]3CCCN3C(C)=O)[C@@H](C)CC)C(C)C)[C@@H](C)O)[C@@H](C)CC)[C@@H](C)CC)C(=O)O)C2=O)CCO[C@H]2CC[C@@]3(C)C(=CC[C@H]4[C@@H]5CC[C@H]([C@H](C)CCCC(C)C)[C@@]5(C)CC[C@@H]43)C2)C1=O)C(=O)O)[C@@H](C)CC (stereo partly shown) [[HRC450-485-peg4]2-chol]
Virus bearing L454W F
  protection from lethal infection: protects suckling mice from lethal infection
MeV IC323-EGFP-F L454W; 10 nM
  spread of virus in OBC (fluorescence): only partially inhibitory
MeV IC323-EGFP-F L454W; 100 nM
  spread of virus in OBC (fluorescence): only isolated single infected cells were observed
MeV IC323-EGFP-F L454W; IFNAR1KO OBC, 10 nM, treated post-infection, vs untreated
  reduction in the number of MeV N RNA copies: 4 fold
MeV IC323-EGFP-F L454W; IFNAR1KO OBC, 100 nM, treated post-infection, vs untreated
  reduction of the viral load (MeV N RNA copies, RT-qPCR): 2 log
MeV IC323-EGFP-F L454W; IFNAR1KO OBC, concentrations below 10 nM
  variation of the viral load: No significant variation of the viral load
MeV IC323-EGFP-F L454W; OBC from IFNAR1KO mice expressing human CD150, highest concentration
  dissemination of virus in OBC expressing human CD150 (SLAM): blocked dissemination of MeV IC323-EGFP-F L454W at least as well as WT virus
MeV IC323-EGFP-F L454W; either 100 nM or 10 nM, four days after infection
  spread of virus in OBC (fluorescence): blocks the spread of MeV-IC323-EGFP-F L454W
Wt MeV
  blocking of wt MeV infection (previous work): blocks infection with wt MeV in vitro, ex vivo and in vivo in cotton rats and mice
[3]
  IC50: 125 ± 175 nM
  IC90: 378 ± 300 nM
[3]; read-out: Nectin4 IC90
  IC90: 378 ± 300 nM
[4]
  IC50: 100 ± 65.1 nM
  IC90: 698 ± 22.3 nM
MeV “WTFb” strain
  MeV titration of lung homogenates: reduces the viral titer compared to the untreated animals
